Assay: Solubility in aqueous solution
Type: physicochemical
Source text: In some cases, the DHEAS will associate with or form a complex with the divalent cation which is less soluble than the DHEAS sodium salt.

With “Dehydroepiandrosterone sulfate [DHEAS-Na]” the solubility was “about 17 mg/ml”.

Source: US20090118249A1, “DHEAS INHALATION COMPOSITIONS” (priority 2007, published 2009)
